Reference: patent US20080317857A1, “V-Atpase Inhibitors of Use in the Treatment of Septic Shock” (Brane Discovery S.r.l., priority 2005, published 2008)

System: endotoxic shock induced by LPS in C57BI/6 male mice
Experiment: Septic shock animal model (LPS-induced endotoxic shock), survival
Type: in vivo
Text: The model is represented by endotoxic shock, the most common type of septic shock in humans.
The septic shock has been induced in 8-10 week-old C57BI/6 male mice (Harlan-Nossan laboratories) by high concentrations of LPS (lipopolysaccharide), that is considered a reliable experimental model for human endotoxic shock (Garrido et al., Acta Chir. Bras., 19, 2004).
LPS from Escherichia coli 0127:B7 (Sigma) was solubilized in PBS containing 2% fetal calf serum (FCS) as a source of “LPS binding protein”, a molecule that increases the endotoxin action. Mice received 37.5 mg/kg LPS/endotoxin intraperitoneally (i.p.). Animals (ten/group) were monitored at least four times daily and survival of animals was determined in control and treated mice (Lowell C. A. et al., PNAS 95, 7580, 1998).
In the preventive study (FIG. 3), control mice received only vehicle, while treated mice received 70 mg/kg i.p. of Compound of Example 1 two hours before the administration of LPS.
In the therapeutic study (FIG. 4), control mice received only vehicle, while treated mice received both 70 mg/kg i.p. of Compound of Example 1 (3 hours after LPS administration) and 10 mg/kg i.v. (intravenously) (12 hours after LPS administration).

`COC(=O)c1[nH]c2cc(OC)c(OC)cc2c1-c1ccc(OC)cc1` [Example 1] was tested, and the “survival, therapeutic study” value (70 mg/kg i.p. 3 hours and 10 mg/kg i.v. 12 hours after LPS, at 52 hours, control survival 0%) was 40%, the “mortality, preventive study” value (70 mg/kg i.p. two hours before LPS, at 90 hours, control mortality 100%) was 20% and the “survival, preventive study” value (70 mg/kg i.p. two hours before LPS, at 90 hours, control survival 0%) was 80%.
